From the supplement of paper PMC10627819

How the values were obtained:
B. subtilis 168 [1] = assay: fitness (endpoint OD595 vs no drug) (fraction); higher = more growth
Method in brief: (§1)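 Bacterial fitness was scored as optical density at the stationary-phase transition relative to the robust mean of no-drug control wells. Scores are capped at 1. The growth data were OD595 readings every 30 min for 14 h at 37 °C, background-subtracted against the first reading, from 384-well plates inoculated at OD595 0.01 in TSB, LB Lennox or CY.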

S. aureus Newman [2] = assay: as above
Method in brief: as §1

S. pneumoniae D39V [3] = assay: as above
Method in brief: as §1

B. subtilis 168 [4] = assay: Bliss interaction score (quartile over a dose matrix) (fitness difference); higher = more antagonism (negative = synergy)
Method in brief: (§2)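 The Bliss score is observed minus expected fitness, where expected fitness is the product of the single-drug fitness values inferred from the combination data. Fitness is the OD595 at the onset of stationary phase over the plate's robust no-drug mean, capped at 1. Scores are summarised by quartiles over technical, biological and donor/recipient replicates.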

S. aureus DSM 20231 = assay: as above
Method in brief: as §2

S. aureus Newman [5] = assay: as above
Method in brief: as §2

S. pneumoniae D39V [6] = assay: as above
Method in brief: as §2
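Wherever Bliss interaction score (quartile over a dose matrix) is given: first quartile when negative (synergy) and third quartile when positive (antagonism).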
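Wherever fitness (endpoint OD595 vs no drug) is given: OD595 on entry to stationary phase over no-drug wells; at most 1.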

CO/N=C(\C(=O)N[C@@H]1C(=O)N2C(C(=O)O)=C(COC(C)=O)CS[C@H]12)c1csc(N)n1 [Cefotaxime] + CC1=C(C(=O)O)N2C(=O)[C@@H](NC(=O)[C@H](N)c3ccccc3)[C@H]2SC1 [Cephalexin]
fitness, one replicate
Conditions | partner 0.125 µg/mL | partner 0.25 µg/mL | partner 0.5 µg/mL | partner 1 µg/mL
B. subtilis 168 [1], first compound 0.00775 µg/mL | – | 0.868 | 0.903 | 0.851
B. subtilis 168 [1], first compound 0.0155 µg/mL | – | 0.729 | 0.728 | 0.748
B. subtilis 168 [1], first compound 0.031 µg/mL | – | 0.62 | 0.631 | 0.615
S. aureus Newman [2], first compound 0.039 µg/mL | – | 0.904 | 0.952 | ≥ 1
S. aureus Newman [2], first compound 0.312 µg/mL | – | 0.402 | 0.38 | 0.371
S. pneumoniae D39V [3], first compound 0.0018 µg/mL | ≥ 1 | 0.959 | 1 | –
S. pneumoniae D39V [3], first compound 0.0035 µg/mL | 0.953 | 0.967 | 0.977 | –
S. pneumoniae D39V [3], first compound 0.007 µg/mL | 0.777 | 0.875 | 0.724 | –

Conditions | fitness
B. subtilis 168 [1], first compound 0.5 µg/mL, partner 0.125 µg/mL | 0.235
B. subtilis 168 [1], first compound 0.5 µg/mL, partner 0.25 µg/mL | 0.221
B. subtilis 168 [1], first compound 0.5 µg/mL, partner 0.5 µg/mL | 0.248
B. subtilis 168 [1], first compound 1 µg/mL, partner 0.125 µg/mL | 0.152
B. subtilis 168 [1], first compound 1 µg/mL, partner 0.25 µg/mL | 0.123
B. subtilis 168 [1], first compound 1 µg/mL, partner 0.5 µg/mL | 0.148
B. subtilis 168 [1], first compound 2 µg/mL, partner 0.125 µg/mL | 0.124
B. subtilis 168 [1], first compound 2 µg/mL, partner 0.25 µg/mL | 0.125
B. subtilis 168 [1], first compound 2 µg/mL, partner 0.5 µg/mL | 0.0819
S. aureus Newman [2], first compound 0.078 µg/mL, partner 0.25 µg/mL | 0.751
S. aureus Newman [2], first compound 0.078 µg/mL, partner 0.5 µg/mL | 0.797
S. aureus Newman [2], first compound 0.078 µg/mL, partner 1 µg/mL | 0.817
S. aureus Newman [2], first compound 0.156 µg/mL, partner 0.25 µg/mL | 0.636
S. aureus Newman [2], first compound 0.156 µg/mL, partner 0.5 µg/mL | 0.631
S. aureus Newman [2], first compound 0.156 µg/mL, partner 1 µg/mL | 0.713
S. aureus Newman [2], first compound 0.625 µg/mL, partner 0.5 µg/mL | 0.248
S. aureus Newman [2], first compound 1.25 µg/mL, partner 0.25 µg/mL | 0.159
S. aureus Newman [2], first compound 1.25 µg/mL, partner 0.5 µg/mL | 0.111
S. aureus Newman [2], first compound 1.25 µg/mL, partner 1 µg/mL | 0.0956
S. aureus Newman [2], first compound 2.5 µg/mL, partner 0.25 µg/mL | 0.0395
S. aureus Newman [2], first compound 2.5 µg/mL, partner 0.5 µg/mL | 0.0255
S. aureus Newman [2], first compound 2.5 µg/mL, partner 1 µg/mL | 0.0566
S. pneumoniae D39V [3], first compound 0.0018 µg/mL, partner 1 µg/mL | 0.815
S. pneumoniae D39V [3], first compound 0.0018 µg/mL, partner 2 µg/mL | 0.242
S. pneumoniae D39V [3], first compound 0.0018 µg/mL, partner 4 µg/mL | 0.0372
S. pneumoniae D39V [3], first compound 0.0035 µg/mL, partner 1 µg/mL | 0.679
S. pneumoniae D39V [3], first compound 0.0035 µg/mL, partner 2 µg/mL | 0.168
S. pneumoniae D39V [3], first compound 0.0035 µg/mL, partner 4 µg/mL | 0.0436
S. pneumoniae D39V [3], first compound 0.007 µg/mL, partner 2 µg/mL | 0.0426
S. pneumoniae D39V [3], first compound 0.007 µg/mL, partner 4 µg/mL | 0.0416

Conditions | Bliss interaction score
B. subtilis 168 [4] | 0.101
S. aureus DSM 20231 | 0.0629
S. aureus Newman [5] | 0.09
S. pneumoniae D39V [6] | -0.0656

CN(C)c1cc(NC(=O)CNC(C)(C)C)c(O)c2c1C[C@H]1C[C@H]3[C@H](N(C)C)C(O)=C(C(N)=O)C(=O)[C@@]3(O)C(O)=C1C2=O [Tigecycline] + CC1=C\[C@@H](O)CC(=O)Cc2nc(co2)C(=O)N2CCC=C2C(=O)O[C@H](C(C)C)[C@H](C)/C=C/C(=O)NC\C=C\1 [Virginiamycin M1]
fitness
Conditions | first compound 0.039 µg/mL | first compound 0.078 µg/mL | first compound 0.156 µg/mL | first compound 0.65 µg/mL | first compound 1.3 µg/mL | first compound 2.6 µg/mL
B. subtilis 168 [1], partner 0.0625 µg/mL | 0.977 | 0.987 | 0.96 | – | – | –
B. subtilis 168 [1], partner 0.125 µg/mL | 0.95 | 0.938 | 0.954 | – | – | –
B. subtilis 168 [1], partner 0.25 µg/mL | 0.997 | 0.989 | 0.953 | – | – | –
S. aureus Newman [2], partner 0.0625 µg/mL | 0.982 | ≥ 1 | ≥ 1 | – | – | –
S. aureus Newman [2], partner 0.125 µg/mL | 0.998 | 0.999 | ≥ 1 | – | – | –
S. aureus Newman [2], partner 0.25 µg/mL | 0.993 | 0.996 | ≥ 1 | – | – | –
S. pneumoniae D39V [3], partner 0.5 µg/mL | – | – | – | 0.99 | 0.961 | 0.976
S. pneumoniae D39V [3], partner 1 µg/mL | – | – | – | 0.946 | 0.951 | 0.956
S. pneumoniae D39V [3], partner 2 µg/mL | – | – | – | 0.919 | 0.904 | 0.931

one replicate
Conditions | fitness
B. subtilis 168 [1], first compound 0.125 µg/mL, partner 0.0625 µg/mL | ≥ 1
B. subtilis 168 [1], first compound 0.125 µg/mL, partner 0.125 µg/mL | ≥ 1
B. subtilis 168 [1], first compound 0.125 µg/mL, partner 0.25 µg/mL | ≥ 1
B. subtilis 168 [1], first compound 0.25 µg/mL, partner 0.0625 µg/mL | 0.908
B. subtilis 168 [1], first compound 0.25 µg/mL, partner 0.125 µg/mL | 0.908
B. subtilis 168 [1], first compound 0.25 µg/mL, partner 0.25 µg/mL | 0.98
B. subtilis 168 [1], first compound 0.5 µg/mL, partner 0.0625 µg/mL | 0.959
B. subtilis 168 [1], first compound 0.5 µg/mL, partner 0.125 µg/mL | 0.903
B. subtilis 168 [1], first compound 0.5 µg/mL, partner 0.25 µg/mL | 0.925
S. aureus Newman [2], first compound 0.039 µg/mL, partner 0.5 µg/mL | 0.817
S. aureus Newman [2], first compound 0.039 µg/mL, partner 1 µg/mL | 0.983
S. aureus Newman [2], first compound 0.039 µg/mL, partner 2 µg/mL | 0.768
S. aureus Newman [2], first compound 0.078 µg/mL, partner 0.5 µg/mL | 0.817
S. aureus Newman [2], first compound 0.078 µg/mL, partner 1 µg/mL | 0.877
S. aureus Newman [2], first compound 0.078 µg/mL, partner 2 µg/mL | 0.742
S. aureus Newman [2], first compound 0.156 µg/mL, partner 0.5 µg/mL | 0.86
S. aureus Newman [2], first compound 0.156 µg/mL, partner 1 µg/mL | 0.872
S. aureus Newman [2], first compound 0.156 µg/mL, partner 2 µg/mL | 0.745
S. pneumoniae D39V [3], first compound 0.65 µg/mL, partner 0.15 µg/mL | 0.982
S. pneumoniae D39V [3], first compound 0.65 µg/mL, partner 0.3 µg/mL | 0.92
S. pneumoniae D39V [3], first compound 1.3 µg/mL, partner 0.15 µg/mL | 0.963
S. pneumoniae D39V [3], first compound 1.3 µg/mL, partner 0.3 µg/mL | 0.914
S. pneumoniae D39V [3], first compound 2.6 µg/mL, partner 0.15 µg/mL | 0.928
S. pneumoniae D39V [3], first compound 2.6 µg/mL, partner 0.3 µg/mL | 0.86

Conditions | Bliss interaction score
B. subtilis 168 [4] | -0.0387
S. aureus DSM 20231 | 0.109
S. aureus Newman [5] | -0.0271
S. pneumoniae D39V [6] | -0.0538
